In patent US20240400584A1, “COMPOUNDS AND METHODS FOR MODULATING SPLICING” (REMIX THERAPEUTICS INC., priority 2021, published 2024):
Where two headings read alike, the source gives them in different places.

How the values were obtained:
HTT [1] = assay: RT-qPCR splicing assay, HTT AJ/CJ mRNA; type: cell-based, human; conditions: A673 or K562 cells; for IC50: decrease in canonical junction mRNA; for AC50: increase in alternative junction mRNA
In short: (§1)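 Splicing switch scored as change in CJ and AJ isoform levels, by RT-qPCR on lysates of A673 or K562 cells dosed 24 h (top concentration 10 uM, DMSO at most 0.25%). ΔΔCt relative to DMSO wells was converted to RQ and then to percentage response.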

MYB [2] = assay: Gene panel canonical junction qPCR assay, MYB CJ mRNA (Table 7); type: cell-based; conditions: Homo sapiens, read-out: MYB CJ mRNA decrease IC50
In short: (§2)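 A673 or K562 cells treated with compound; canonical exon-junction mRNA measured by RT-qPCR with junction-spanning primers/probe, normalised to GAPDH, GUSB or PPIA and DMSO (ΔΔCt, RQ). Percentage response set from fixed ΔCt assay windows, fitted to a 4-parameter logistic; IC50 is concentration giving 50% CJ decrease.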

SMN2 = assay: Gene panel canonical junction qPCR assay, SMN2 CJ mRNA (Table 7); type: cell-based; conditions: Homo sapiens, read-out: SMN2 CJ mRNA decrease IC50
In short: as §2

HTT [3] = assay: Gene panel canonical junction qPCR assay, HTT CJ mRNA (Table 7); type: cell-based, human; conditions: read-out: HTT CJ mRNA decrease IC50
In short: as §2

Target C = assay: Gene panel canonical junction qPCR assay, Target C CJ mRNA (Table 7); type: cell-based, human; conditions: read-out: Target C CJ mRNA decrease IC50
In short: as §2

MYB [4] = assay: RT-qPCR splicing assay, MYB AJ/CJ mRNA; type: cell-based; conditions: Homo sapiens, A673 or K562 cells, 24 hours; for IC50: decrease in canonical junction mRNA; for AC50: increase in alternative junction mRNA
In short: as §1

SMILES | IC50 (HTT [1]; Homo sapiens, 24 h) | AC50 (HTT [1]; Homo sapiens, 24 h) | IC50 (MYB [2]) | IC50 (SMN2) | IC50 (HTT [3]; Homo sapiens) | IC50 (Target C; Homo sapiens) | IC50 (MYB [4]) | AC50 (MYB [4]) | IC50 (HTT [1]; 24 hours) | AC50 (HTT [1]; 24 hours) | IC50 (HTT [3]) | IC50 (Target C) | IC50 (HTT [1]; Homo sapiens, 24 hours) | AC50 (HTT [1]; Homo sapiens, 24 hours)
CN(c1ccc2c(n1)OCc1cc(-n3cccn3)ccc1-2)[C@@H]1C[C@H]2CCC[C@@H](C1)N2 [Compound 178] | < 100 nM | < 100 nM | 100 to 1000 nM | < 100 nM | < 100 nM | 100 to 1000 nM | 100 to 1000 nM | < 100 nM | – | – | – | – | – | –
COc1cc(-c2ccc3c(c2F)COc2nc(N(C)[C@@H]4C[C@H]5CC[C@@H](C4)N5)ccc2-3)cnn1 [Compound 245, N-((1R,3s,5S)-8-azabicyclo[3.2.1]octan-3-yl)-7-fluoro-8-(6-methoxypyridazin-4-yl)-N-methyl-6H-isoch-romeno[3,4-b]pyridin-3-amine] | < 100 nM | < 100 nM | < 100 nM | < 100 nM | < 100 nM | < 100 nM | < 100 nM | < 100 nM | – | – | – | – | – | –
c1cnn(-c2ccc3c(c2)COc2nc(N4C[C@H]5CNC[C@H]5C4)ccc2-3)c1 [Compound 185] | > 10000 nM | > 10000 nM | > 10000 nM | 1000 to 10000 nM | > 10000 nM | > 10000 nM | > 10000 nM | 1000 to 10000 nM | – | – | – | – | – | –
COc1cc(-c2ccc3c(c2)COc2nc(N4CC[C@@H](NC(C)(C)C)C4)ccc2-3)cnn1 [Compound 265, (3R)—N-tert-butyl-1-[8-(6-methoxypyridazin-4-yl)-6H-isochromeno[3,4-b]376yrrolid-3-yl]376yrrolidine-3-amine] | < 100 nM | < 100 nM | 100 to 1000 nM | < 100 nM | < 100 nM | < 100 nM | 100 to 1000 nM | < 100 nM | – | – | – | – | – | –
c1cc2c(cc1-c1cn[nH]c1)COc1nc(N3CCC34CCNCC4)ccc1-2 [Compound 221, 1-[8-(1H-pyrazol-4-yl)-6H-isochromeno[3,4-b]pyridin-3-yl]-1,7-diazaspiro[3.5]nonane 2,2,2-trifluoroacetate] | > 10000 nM | > 10000 nM | 1000 to 10000 nM | > 10000 nM | > 10000 nM | > 10000 nM | 1000 to 10000 nM | > 10000 nM | – | – | – | – | – | –
c1cnn(-c2ccc3c(c2)OCc2nc(N[C@@H]4C[C@H]5CC[C@@H](C4)N5)ccc2-3)c1 [Compound 135] | – | – | 1000 to 10000 nM | 1000 to 10000 nM | – | – | 1000 to 10000 nM | > 10000 nM | 1000 to 10000 nM | 1000 to 10000 nM | 1000 to 10000 nM | 1000 to 10000 nM | – | –
c1cnn(-c2ccc3c(c2)COc2nc(N4CCC5(CCCNC5)C4)ccc2-3)c1 (stereo not drawn) [Compound 183] | > 10000 nM | > 10000 nM | 1000 to 10000 nM | 100 to 1000 nM | > 10000 nM | > 10000 nM | 1000 to 10000 nM | > 10000 nM | – | – | – | – | – | –
COc1cc(-c2ccc3c(c2)COc2nc(N4CCC(NC(C)C)CC4)ccc2-3)cnn1 [Compound 301, N-isopropyl-1-[8-(6-methoxypyridazin-4-yl)-6H-isochromeno[3,4-b]pyridin-3-yl] piperidin-4-amine] | – | – | 1000 to 10000 nM | 1000 to 10000 nM | 1000 to 10000 nM | 1000 to 10000 nM | 1000 to 10000 nM | 1000 to 10000 nM | – | – | – | – | 1000 to 10000 nM | 100 to 1000 nM
COc1cc(-c2ccc3c(c2)COc2nc(N4CCC(N)CC4)ccc2-3)cnn1 [Compound 288] | 1000 to 10000 nM | 1000 to 10000 nM | > 10000 nM | 1000 to 10000 nM | 1000 to 10000 nM | > 10000 nM | > 10000 nM | > 10000 nM | – | – | – | – | – | –
CCC(C)(C)NC1CCN(c2ccc3c(n2)OCc2cc(-c4cnnc(OC)c4)ccc2-3)C1 (stereo not drawn) [Compound 281, 1-[8-(6-methoxypyridazin-4-yl)-6H-isochromeno[3,4-b]pyridin-3-yl]-N-(2-methylbutan-2-yl)pyrrolidin-3-amine] | < 100 nM | < 100 nM | 100 to 1000 nM | < 100 nM | < 100 nM | 100 to 1000 nM | 100 to 1000 nM | 100 to 1000 nM | – | – | – | – | – | –
CN(c1ccc2c(n1)OCc1cc(-c3cn[nH]c3)ccc1-2)C1CC2CC(F)(F)C(C1)N2 (stereo not drawn) [Compound 248, 6,6-difluoro-N-methyl-N-[8-(1H-pyrazol-4-yl)-6H-isochromeno[3,4-b]pyridin-3-yl]-8-azabicyclo[3.2.1]octan-3-amine] | 100 to 1000 nM | 100 to 1000 nM | 1000 to 10000 nM | 100 to 1000 nM | 100 to 1000 nM | 1000 to 10000 nM | 1000 to 10000 nM | 1000 to 10000 nM | – | – | – | – | – | –
COc1cc(-c2ccc3c(c2)COc2nc(N(C)[C@@H]4C[C@H]5CC[C@@H](C4)N5)ncc2-3)cnn1 [Compound 295] | < 100 nM | < 100 nM | 100 to 1000 nM | < 100 nM | < 100 nM | 100 to 1000 nM | 100 to 1000 nM | 1000 to 10000 nM | – | – | – | – | – | –
CN(c1ccc2c(n1)OCc1cc(-c3cnn(C)c3)ccc1-2)[C@@H]1C[C@H]2CC[C@@H](C1)N2 [Compound 150] | < 100 nM | < 100 nM | 100 to 1000 nM | > 10000 nM | < 100 nM | 100 to 1000 nM | 100 to 1000 nM | 100 to 1000 nM | – | – | – | – | – | –
COc1cc(-c2ccc3c(c2)COc2nc(N4CCC(N(C)CC5CC5)C4)ccc2-3)cnn1 (stereo not drawn) [Compound 308] | 100 to 1000 nM | 1000 to 10000 nM | 1000 to 10000 nM | 100 to 1000 nM | 100 to 1000 nM | 1000 to 10000 nM | 1000 to 10000 nM | 1000 to 10000 nM | – | – | – | – | – | –
c1cc2c(cc1-c1cn[nH]c1)COc1nc(N3CCC4(CCN4)C3)ccc1-2 (stereo not drawn) [Compound 217, 6-[8-(1H-pyrazol-4-yl)-6H-isochromeno[3,4-b]pyridin-3-yl]-1,6-diazaspiro[3.4]octane] | 100 to 1000 nM | 1000 to 10000 nM | 1000 to 10000 nM | 100 to 1000 nM | 100 to 1000 nM | 1000 to 10000 nM | 1000 to 10000 nM | > 10000 nM | – | – | – | – | – | –
c1cnn(-c2ccc3c(c2)COc2nc(N4CC5(CCCNC5)C4)ccc2-3)c1 [Compound 168] | > 10000 nM | > 10000 nM | > 10000 nM | > 10000 nM | > 10000 nM | > 10000 nM | > 10000 nM | > 10000 nM | – | – | – | – | – | –
c1cnn(-c2ccc3c(c2)COc2nc(N[C@@H]4C[C@H]5CCC[C@@H](C4)N5)ccc2-3)c1 [Compound 190] | < 100 nM | 100 to 1000 nM | 100 to 1000 nM | < 100 nM | < 100 nM | 100 to 1000 nM | 100 to 1000 nM | 100 to 1000 nM | – | – | – | – | – | –
c1cnn(-c2ccc3c(c2)COc2nc(O[C@@H]4C[C@H]5CC[C@@H](C4)N5)ccc2-3)c1 [Compound 188] | 100 to 1000 nM | 100 to 1000 nM | 1000 to 10000 nM | 100 to 1000 nM | 100 to 1000 nM | 1000 to 10000 nM | 1000 to 10000 nM | 1000 to 10000 nM | – | – | – | – | – | –
